Data: PubChem BioAssay (NCI)
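Five compound concentrations were applied to cells in 96-well plates for 48 hours; endpoints were derived by simple linear interpolation of the resulting dose-response curve. GI50 is the concentration that inhibits growth by half. TGI marks complete inhibition of growth.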

Columns and labels:
Experiment in all cases: NCI anticancer screen, dose series, 48 h
OVCAR-3 ovarian = tested on: OVCAR-3 ovarian
COLO 205 colon = tested on: COLO 205 colon
A549 NSCLC = tested on: A549 NSCLC
NCI-H460 lung = tested on: NCI-H460 lung
SF-295 CNS = tested on: SF-295 CNS
HCT-15 colon = tested on: HCT-15 colon
T-47D breast = tested on: T-47D breast
IGROV1 ovarian = tested on: IGROV1 ovarian
SNB-19 CNS = tested on: SNB-19 CNS
MOLT-4 leukemia = tested on: MOLT-4 leukemia
HOP-62 NSCLC = tested on: HOP-62 NSCLC
TK-10 renal = tested on: TK-10 renal
LOX IMVI melanoma = tested on: LOX IMVI melanoma
CCRF-CEM leukemia = tested on: CCRF-CEM leukemia
UO-31 renal = tested on: UO-31 renal
NCI-H522 lung = tested on: NCI-H522 lung
K-562 leukemia = tested on: K-562 leukemia
HL-60(TB) leukemia = tested on: HL-60(TB) leukemia
NCI/ADR-RES ovarian = tested on: NCI/ADR-RES ovarian
KM12 colon = tested on: KM12 colon
RXF 393 renal = tested on: RXF 393 renal
M14 melanoma = tested on: M14 melanoma
NCI-H226 lung = tested on: NCI-H226 lung
SR leukemia = tested on: SR leukemia
UACC-257 melanoma = tested on: UACC-257 melanoma
OVCAR-5 ovarian = tested on: OVCAR-5 ovarian
HT29 colon = tested on: HT29 colon
MDA-MB-231 breast = tested on: MDA-MB-231 breast
DU-145 prostate = tested on: DU-145 prostate
RPMI-8226 leukemia = tested on: RPMI-8226 leukemia
SK-MEL-5 melanoma = tested on: SK-MEL-5 melanoma
OVCAR-8 ovarian = tested on: OVCAR-8 ovarian
SN12C renal = tested on: SN12C renal
MCF7 breast = tested on: MCF7 breast
U251 CNS = tested on: U251 CNS
UACC-62 melanoma = tested on: UACC-62 melanoma
HS 578T breast = tested on: HS 578T breast
MDA-MB-435 = tested on: MDA-MB-435
BT-549 breast = tested on: BT-549 breast
HOP-92 NSCLC = tested on: HOP-92 NSCLC
786-0 renal = tested on: 786-0 renal
SW-620 colon = tested on: SW-620 colon
OVCAR-4 ovarian = tested on: OVCAR-4 ovarian
NCI-H23 lung = tested on: NCI-H23 lung
A498 renal = tested on: A498 renal
SF-268 CNS = tested on: SF-268 CNS
SK-OV-3 ovarian = tested on: SK-OV-3 ovarian
HCT-116 colon = tested on: HCT-116 colon
CAKI-1 renal = tested on: CAKI-1 renal
SK-MEL-2 melanoma = tested on: SK-MEL-2 melanoma
HCC-2998 colon = tested on: HCC-2998 colon
SK-MEL-28 melanoma = tested on: SK-MEL-28 melanoma
ACHN renal = tested on: ACHN renal
MALME-3M melanoma = tested on: MALME-3M melanoma
PC-3 prostate = tested on: PC-3 prostate
EKVX NSCLC = tested on: EKVX NSCLC
SNB-75 CNS = tested on: SNB-75 CNS
SF-539 CNS = tested on: SF-539 CNS

`O=C(c1ccco1)c1c(C(F)(F)F)nc2ccc(Cl)cc2[n+]1[O-]` was tested. Which GI50 (OVCAR-3 ovarian) did it give?
The GI50 was greater than 100 µM.

What about the TGI (OVCAR-3 ovarian) of the same compound?
The TGI was greater than 100 µM.

And the GI50 (COLO 205 colon)?
The GI50 was 70.4 µM.

And the TGI (COLO 205 colon)?
The TGI was greater than 100 µM.

What about the GI50 (A549 NSCLC) of the same compound?
Its GI50 is greater than 100 µM.

What about the TGI (A549 NSCLC) of the same compound?
The TGI was greater than 100 µM.

And the GI50 (NCI-H460 lung)?
Its GI50 is greater than 100 µM.

What about the TGI (NCI-H460 lung) of the same compound?
Its TGI is greater than 100 µM.

And the GI50 (SF-295 CNS)?
The GI50 was greater than 100 µM.

What about the TGI (SF-295 CNS) of the same compound?
Its TGI is greater than 100 µM.

And the GI50 (HCT-15 colon)?
The GI50 was 61 µM.

What about the TGI (HCT-15 colon) of the same compound?
Its TGI is greater than 100 µM.

And the GI50 (T-47D breast)?
Its GI50 is greater than 100 µM.

And the TGI (T-47D breast)?
The TGI was greater than 100 µM.

What about the GI50 (IGROV1 ovarian) of the same compound?
Its GI50 is greater than 100 µM.

And the TGI (IGROV1 ovarian)?
Its TGI is greater than 100 µM.

And the GI50 (SNB-19 CNS)?
The GI50 was greater than 100 µM.

And the TGI (SNB-19 CNS)?
The TGI was greater than 100 µM.

And the GI50 (MOLT-4 leukemia)?
Its GI50 is greater than 100 µM.

What about the TGI (MOLT-4 leukemia) of the same compound?
The TGI was greater than 100 µM.

What about the GI50 (HOP-62 NSCLC) of the same compound?
The GI50 was greater than 100 µM.

What about the TGI (HOP-62 NSCLC) of the same compound?
The TGI was greater than 100 µM.

What about the GI50 (TK-10 renal) of the same compound?
Its GI50 is greater than 100 µM.

What about the TGI (TK-10 renal) of the same compound?
The TGI was greater than 100 µM.

And the GI50 (LOX IMVI melanoma)?
The GI50 was greater than 100 µM.

What about the TGI (LOX IMVI melanoma) of the same compound?
Its TGI is greater than 100 µM.

What about the GI50 (CCRF-CEM leukemia) of the same compound?
The GI50 was greater than 100 µM.

And the TGI (CCRF-CEM leukemia)?
Its TGI is greater than 100 µM.

What about the GI50 (UO-31 renal) of the same compound?
The GI50 was greater than 100 µM.

And the TGI (UO-31 renal)?
Its TGI is greater than 100 µM.

What about the GI50 (NCI-H522 lung) of the same compound?
Its GI50 is 83.1 µM.

And the TGI (NCI-H522 lung)?
The TGI was greater than 100 µM.

And the GI50 (K-562 leukemia)?
Its GI50 is 33.2 µM.

And the TGI (K-562 leukemia)?
The TGI was greater than 100 µM.

And the GI50 (HL-60(TB) leukemia)?
The GI50 was 25.2 µM.

And the TGI (HL-60(TB) leukemia)?
Its TGI is 85.1 µM.

What about the GI50 (NCI/ADR-RES ovarian) of the same compound?
The GI50 was greater than 100 µM.

And the TGI (NCI/ADR-RES ovarian)?
The TGI was greater than 100 µM.

What about the GI50 (KM12 colon) of the same compound?
The GI50 was greater than 100 µM.

And the TGI (KM12 colon)?
Its TGI is greater than 100 µM.

What about the GI50 (RXF 393 renal) of the same compound?
The GI50 was 70.3 µM.

What about the TGI (RXF 393 renal) of the same compound?
Its TGI is greater than 100 µM.

And the GI50 (M14 melanoma)?
Its GI50 is greater than 100 µM.

What about the TGI (M14 melanoma) of the same compound?
Its TGI is greater than 100 µM.

And the GI50 (NCI-H226 lung)?
The GI50 was greater than 100 µM.

What about the TGI (NCI-H226 lung) of the same compound?
Its TGI is greater than 100 µM.

And the GI50 (SR leukemia)?
The GI50 was 86.6 µM.

What about the TGI (SR leukemia) of the same compound?
Its TGI is greater than 100 µM.

And the GI50 (UACC-257 melanoma)?
The GI50 was greater than 100 µM.

And the TGI (UACC-257 melanoma)?
Its TGI is greater than 100 µM.

What about the GI50 (OVCAR-5 ovarian) of the same compound?
Its GI50 is greater than 100 µM.

What about the TGI (OVCAR-5 ovarian) of the same compound?
The TGI was greater than 100 µM.

What about the GI50 (HT29 colon) of the same compound?
The GI50 was greater than 100 µM.

And the TGI (HT29 colon)?
The TGI was greater than 100 µM.

And the GI50 (MDA-MB-231 breast)?
The GI50 was greater than 100 µM.

And the TGI (MDA-MB-231 breast)?
Its TGI is greater than 100 µM.

And the GI50 (DU-145 prostate)?
Its GI50 is greater than 100 µM.

And the TGI (DU-145 prostate)?
The TGI was greater than 100 µM.

What about the GI50 (RPMI-8226 leukemia) of the same compound?
Its GI50 is greater than 100 µM.

And the TGI (RPMI-8226 leukemia)?
The TGI was greater than 100 µM.

What about the GI50 (SK-MEL-5 melanoma) of the same compound?
The GI50 was 17.5 µM.

What about the TGI (SK-MEL-5 melanoma) of the same compound?
The TGI was 31.6 µM.

And the GI50 (OVCAR-8 ovarian)?
Its GI50 is greater than 100 µM.

What about the TGI (OVCAR-8 ovarian) of the same compound?
The TGI was greater than 100 µM.

And the GI50 (SN12C renal)?
The GI50 was greater than 100 µM.

And the TGI (SN12C renal)?
The TGI was greater than 100 µM.

And the GI50 (MCF7 breast)?
Its GI50 is greater than 100 µM.

What about the TGI (MCF7 breast) of the same compound?
Its TGI is greater than 100 µM.

And the GI50 (U251 CNS)?
Its GI50 is greater than 100 µM.

What about the TGI (U251 CNS) of the same compound?
The TGI was greater than 100 µM.

What about the GI50 (UACC-62 melanoma) of the same compound?
The GI50 was greater than 100 µM.

And the TGI (UACC-62 melanoma)?
The TGI was greater than 100 µM.

And the GI50 (HS 578T breast)?
Its GI50 is 19.8 µM.

And the TGI (HS 578T breast)?
The TGI was 51.4 µM.

What about the GI50 (MDA-MB-435) of the same compound?
The GI50 was greater than 100 µM.

What about the TGI (MDA-MB-435) of the same compound?
Its TGI is greater than 100 µM.

What about the GI50 (BT-549 breast) of the same compound?
Its GI50 is greater than 100 µM.

What about the TGI (BT-549 breast) of the same compound?
The TGI was greater than 100 µM.

And the GI50 (HOP-92 NSCLC)?
Its GI50 is 44 µM.

What about the TGI (HOP-92 NSCLC) of the same compound?
The TGI was greater than 100 µM.

And the GI50 (786-0 renal)?
The GI50 was greater than 100 µM.

What about the TGI (786-0 renal) of the same compound?
The TGI was greater than 100 µM.

What about the GI50 (SW-620 colon) of the same compound?
Its GI50 is 13.4 µM.

What about the TGI (SW-620 colon) of the same compound?
The TGI was 29.6 µM.

What about the GI50 (OVCAR-4 ovarian) of the same compound?
The GI50 was greater than 100 µM.

What about the TGI (OVCAR-4 ovarian) of the same compound?
Its TGI is greater than 100 µM.

And the GI50 (NCI-H23 lung)?
The GI50 was 69.5 µM.

And the TGI (NCI-H23 lung)?
The TGI was greater than 100 µM.

And the GI50 (A498 renal)?
The GI50 was 23.1 µM.

And the TGI (A498 renal)?
The TGI was 68 µM.

And the GI50 (SF-268 CNS)?
The GI50 was greater than 100 µM.

What about the TGI (SF-268 CNS) of the same compound?
Its TGI is greater than 100 µM.

What about the GI50 (SK-OV-3 ovarian) of the same compound?
Its GI50 is greater than 100 µM.

What about the TGI (SK-OV-3 ovarian) of the same compound?
The TGI was greater than 100 µM.

What about the GI50 (HCT-116 colon) of the same compound?
Its GI50 is greater than 100 µM.

And the TGI (HCT-116 colon)?
Its TGI is greater than 100 µM.

What about the GI50 (CAKI-1 renal) of the same compound?
The GI50 was 26.6 µM.

And the TGI (CAKI-1 renal)?
The TGI was 85.8 µM.

What about the GI50 (SK-MEL-2 melanoma) of the same compound?
Its GI50 is greater than 100 µM.

And the TGI (SK-MEL-2 melanoma)?
The TGI was greater than 100 µM.

What about the GI50 (HCC-2998 colon) of the same compound?
Its GI50 is 21.8 µM.

And the TGI (HCC-2998 colon)?
Its TGI is 46.1 µM.

What about the GI50 (SK-MEL-28 melanoma) of the same compound?
The GI50 was greater than 100 µM.

And the TGI (SK-MEL-28 melanoma)?
The TGI was greater than 100 µM.

What about the GI50 (ACHN renal) of the same compound?
The GI50 was greater than 100 µM.

What about the TGI (ACHN renal) of the same compound?
Its TGI is greater than 100 µM.

What about the GI50 (MALME-3M melanoma) of the same compound?
Its GI50 is greater than 100 µM.

And the TGI (MALME-3M melanoma)?
Its TGI is greater than 100 µM.

What about the GI50 (PC-3 prostate) of the same compound?
Its GI50 is greater than 100 µM.

What about the TGI (PC-3 prostate) of the same compound?
The TGI was greater than 100 µM.

What about the GI50 (EKVX NSCLC) of the same compound?
Its GI50 is 56.8 µM.

And the TGI (EKVX NSCLC)?
Its TGI is greater than 100 µM.

What about the GI50 (SNB-75 CNS) of the same compound?
The GI50 was 54 µM.

And the TGI (SNB-75 CNS)?
The TGI was greater than 100 µM.

What about the GI50 (SF-539 CNS) of the same compound?
Its GI50 is greater than 100 µM.

What about the TGI (SF-539 CNS) of the same compound?
Its TGI is greater than 100 µM.
